Our source for the TGI values is PubChem BioAssay (NCI).

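Grown in 96-well plates, cells were treated for 48 hours with each compound at five concentrations. Insufficient inhibition: endpoint recorded as highest concentration tested. At the TGI there is no net growth.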

Common to all, as to assay: NCI tumour cell line growth inhibition, 48 h
In assay [1] the test system is M19-MEL melanoma.
Assay [2] deals with DMS 114 small cell lung.
Assay [3] concerns RXF-631 renal.
Assay [4] has as its system DMS 273 small cell lung.
Assay [5] deals with XF 498 CNS.
For assay [6], the system named is HOP-18 NSCLC.
The subject of assay [7] is KM20L2 colon.
In assay [8] the test system is P388/ADR leukemia.
Assay [9] relates to SN12K1 renal.
Assay [10] has as its system MDA-N.
Assay [11] relates to HS 578T breast.
For assay [12], the system named is P388 leukemia.

In the case of `C#CCOCn1cnc2c(Cl)ncnc21`, the TGI in [1], in [2], in [3], in [4], in assay [5] and in [6] was over 100 µM throughout.
`CCCCCCCCCCCC(=O)OCC1OC(n2cc(F)c(=O)[nH]c2=O)C(NC(=O)OCc2ccccc2)C(OC(=O)CCCCCCCCCCC)C1O` (configuration not stated): the TGI in assay [1], in assay [2], in [3], in [4], in [5] and in [7] was over 100 µM in each case. In [6], the TGI was over 100 µM.
In the case of `O=C(NCCCCCCNC(=O)n1cc(F)c(=O)[nH]c1=O)NCCCOCCOCCOCCOCCOCCOCCOCCOCCOCCOCCOCCOCCOCCOCCOCCOCCOCCOCCOCCOCCOCCCNC(=O)C(O)C(O)C(O)C(O)CO` (configuration not stated), the TGI in [1], in [2], in assay [8], in assay [9], in assay [10] and in assay [11] was over 100 µM in each case. Moreover, the TGI in [4], in [5], in [12], in [7] and in assay [6] was over 100 µM throughout.
Turning to `Cc1ccc(N=Cc2ccc3c(c2)OCO3)cc1C`, the TGI in assay [1], in assay [3], in assay [4], in assay [5], in assay [7] and in assay [6] was over 100 µM in each case.
On to `CCOc1ccc(NC(=O)C(=O)CC(=O)C2=C(C)Nc3ccccc3S2)cc1`, for which the TGI in assay [1], in [2], in assay [3], in assay [5], in assay [7] and in assay [6] was over 50 µM throughout.
Regarding `Cc1cc(N(CCC#N)CCC#N)ccc1N=Nc1cccc(C(=O)O)c1`, the TGI in assay [1], in assay [2], in assay [3], in assay [4], in [5] and in assay [6] was over 100 µM each time.
